In series [1] the test system is IL-8 release, THP-1 cells. Nature of the series: LPS-stimulated IL-8 release in THP-1 cells (inflammation assay). In kind it is cell-based, human. Particulars: for potency at inhibiting the LPS inflammatory response (in words): IL-8, dose range 0-30 ug/ml; for MIC (inhibiting the LPS IL-8 response): API dose range 0-30 ug/ml.
A short description of series [2]: Solubility of APIs in ethanol & water vehicles. In kind it is physicochemical. The conditions noted are these: for Solubility in water and ethanol (in words): comparison among the screened APIs.
Series [3] in a line: Franz cell porcine skin permeation, ToF-SIMS tape strip analysis. In kind it is in vitro ADME, pig. Particulars: for evidence of permeation (key findings): porcine skin, ToF-SIMS imaging and tape stripping, with or without Nanocin.
For series [4], the system named is TNF-α release, THP-1 cells. Kind of series: LPS-stimulated TNF-α release in THP-1 cells (inflammation assay). In kind it is cell-based, human. The conditions noted are these: final concentration 1 or 0.1 ug/ml; normalised with cell count. As for the experimental part: The release of cytokines (looking particularly at those associated with inflammation-TNF-α, IL-8, IL-1α) after stimulation with lipopolysaccharide (LPS) is a valid model system to test compounds for potential anti-inflammatory effects (Reference 1)
To standardise conditions for the assay, a LPS dose (0-1 ug/ml) was investigated on TNF-α, IL-8 and IL-1α response, over a time period from 2, 4 and 24 hours.
A 1:1 mg/ml (Nanocin:API) was initially formulated in 20% ethanol and the stock formulation was then diluted down with serum free media and tested at a final concentration of 1 or 0.1 ug/ml.

Series [5] is described as follows: Franz cell porcine skin permeation, ToF-SIMS cross sectional analysis. It counts as in vitro ADME, pig. Particulars: cross sections; 1 mg/ml Diclofenac; partial embedding. As for the experimental part:
The experimental work involved applying various formulations to the skin in a Franz cell, leaving it for 24 hours as an infinite dose. Initial formulations were 1 mg/ml Nanocin and 300 ug/ml API in 20% ethanol. The same concentration of formulation were also used using FITC labelled Nanocin. Methods of detection was by: Franz Cell Method 1: Full OCT Embedding Method and Cryo-Sectioning; Franz Cell Method 2: Partial OCT Embedding and Cryo-Sectioning; Franz Cell Method 3: Partial OCT Embedding and Tape Stripping; and Time-of-Flight Secondary Ion Mass Spectrometry (ToF-SIMS) Fluorescence Microscopy.
Porcine ears used for the Franz cell analysis were sourced from a local abattoir. The age of the pig slaughtered were between 4-6 months old. The ears were cleaned with deionised water and the outside skin was carefully removed from the underlying cartilage. The excised skin was then stored at −20° C. until use. All ears used for the permeation experiment were within 6 months after procurement.
Prior to setting up the Franz cells, the skin was defrosted by leaving it at room temperature and pressure. Excess hairs on the porcine skin were not trimmed in this instance (to promote capacity to identify follicular delivery). […]

In brackets after ≈: the same amount, converted by molar mass.

As for `C=CC[C@@H]1/C=C(\C)C[C@H](C)C[C@H](OC)[C@H]2O[C@@](O)(C(=O)C(=O)N3CCCC[C@H]3C(=O)O[C@H](/C(C)=C/[C@@H]3CC[C@@H](O)[C@H](OC)C3)[C@H](C)[C@@H](O)CC1=O)[C@H](C)C[C@@H]2OC` [Tacrolimus], in series [1] (30 ug/ml API, 10 ug/ml LPS, 24 h), the “anti-inflammatory effect, IL-8 normalised with cell count” value is given as “more effective anti-inflammatory”. Moreover, the “potency at inhibiting the LPS inflammatory response (in words)” value in series [1] (THP-1 cells) was “more potent than Ibuprofen”. Besides, the “MIC (inhibiting the LPS IL-8 response)” value in series [1] (THP-1 cells, 24 h) came out at 0.3 µg/mL (≈ 0.373 µM). The Solubility result in series [2] (10 mg/ml API solution, 10% ethanol) is “x(better)”. Besides, in series [3], the “evidence of permeation (key findings)” value is given as “no evidence”.

Take `CO[C@H]1C[C@@H]2CC[C@@H](C)[C@@](O)(O2)C(=O)C(=O)N2CCCC[C@H]2C(=O)O[C@H]([C@H](C)C[C@@H]2CC[C@@H](O)[C@H](OC)C2)CC(=O)[C@H](C)/C=C(\C)[C@@H](O)[C@@H](OC)C(=O)[C@H](C)C[C@H](C)/C=C/C=C/C=C/1C` [Rapamycin]: in series [1] (THP-1 cells, 24 h), the “MIC (inhibiting the LPS IL-8 response)” value turned out to be 1 µg/mL (≈ 1.09 µM). For the same compound, the “evidence of permeation (key findings)” value in series [3] is recorded as “no evidence”.

As to `O=C(O)Cc1ccccc1Nc1c(Cl)cccc1Cl` [Diclofenac], the “potency at inhibiting the LPS inflammatory response (in words)” value in series [1] (THP-1 cells) is reported as “more potent than Ibuprofen”. Moreover, in series [1] (THP-1 cells, 24 h), the “MIC (inhibiting the LPS IL-8 response)” value amounted to 1 µg/mL (≈ 3.38 µM). For the same compound, in series [1] (final concentration 1 or 0.1 ug/ml, normalised with cell count), the “LPS-stimulated IL-8 response” value was “reduced”. In addition, the “Solubility in water and ethanol (in words)” value (shortened to “Solubility … (in words)”) in series [2] is “most soluble”. The “LPS-stimulated TNF-α response” value in series [4] is on record as “reduced”. The “presence of NaCl2— and Na2Cl3— ions (diclofenac markers)” value in series [3] (tape strips 1-3, 1 mg/ml Diclofenac) is listed as “none”. Besides, the “intensity of Cl—, NaCl2- and Na2Cl3- markers in the stratum corneum” value in series [5] is on record as “slight elevation”.

Consider `Cc1ccc(-c2cc(C(F)(F)F)nn2-c2ccc(S(N)(=O)=O)cc2)cc1` [Celecoxib], for which the “Solubility … (in words)” value in series [2] is reported as “insolubility”.

`CC(C)Cc1ccc(C(C)C(=O)O)cc1` (stereo not drawn) [Ibuprofen]: in series [1] (30 ug/ml API, LPS 24 h, THP-1 cells), the “effect on reducing the IL-8 release” value is “very little effect”. For the same compound, the “Solubility … (in words)” value in series [2] is on record as “better solubility”. Also, the “evidence of permeation (key findings)” value in series [3] was “no evidence”.

The values above are taken from patent US20210259981A1, “COMPOSITIONS AND METHODS OF TREATMENT” (Blueberry Therapeutics Limited, priority 2018, published 2021).
